Test results: article PMC5738391, “Three classes of ligands each bind to distinct sites on the orphan G protein-coupled receptor GPR84” (Scientific Reports, 2017)
Blank lines part the entries; values can stand above or below the molecule they belong to.

How the values were obtained:
[1] = system: patients with ulcerative colitis; design: method as in doi:10.1093/ecco-jcc/jjx002.734; conditions: cited from earlier work
[2] = system: wild type GPR84; design: method as in PMID 25425658; conditions: cited from earlier work
[3] = biological target: T1, human GPR84 (FLAG-hGPR84-eYFP) (Homo sapiens, UniProt Q9NQS5); test: [35S]GTPγS binding, membranes of cells expressing FLAG-hGPR84-eYFP; assay type: biochemical
T1 construct: expressed in transfected cells
Description: Membranes were generated from Flp-In T-REx HEK293 cells treated with 100 ng/mL doxycycline to induce expression of the receptor construct of interest. Cells were washed with ice-cold phosphate-buffered saline, removed from dishes by scraping and centrifuged at 3000 rpm for 5 min at 4 °C. Pellets were resuspended in TE buffer (10 mM Tris-HCl, 0.1 mM EDTA; pH 7.5) containing a protease inhibitor mixture (Roche Applied Science, West Sussex, UK) and homogenized with a 5 ml hand-held homogenizer. This material was centrifuged at 1500 rpm for 5 min at 4 °C and the supernatant was further centrifuged at 50000 rpm for 45 min at 4 °C. The resulting pellet was resuspended in TE buffer and protein content was assessed using a BCA protein assay kit (Pierce, Fisher Scientific, Loughborough, UK).
The reaction was then initiated with addition of [^35S]GTPγS (50 nCi per tube), and the reaction was terminated after 45 minutes incubation at 30 °C by rapid filtration through GF/C glass filters using a 24-well Brandel cell harvester (Alpha Biotech, Glasgow, UK). […] Dried filters were added to 3 mL of Ultima Gold^TM XR (PerkinElmer Life Sciences, Beaconsfield, UK) and [^35S]GTPγS binding was determined by liquid scintillation spectrometry.
All data are presented as means ± SEM of at least three independent experiments. Data analysis and curve fitting was carried out using the GraphPad Prism software package version 5.0b (GraphPad, San Diego). […] In case of inhibition experiments with antagonists an equivalent analysis was followed to fit an inverse sigmoidal curve. To perform the statistical analysis of curve parameters, data from multiple experiments were fitted independently and resulting curve fit values were analysed with indicated tests. For radioligand binding data, saturation binding curves were generated by fitting the specific binding, which was obtained by subtracting non-specific from total binding, to a one site specific binding model that allows calculation of Kd values for the radioligand at wild type and mutant receptors. To determine affinity of unlabelled ligands, data obtained in displacement assays were fit to an inverse three parameter sigmoidal curve constrained by radioligand affinity and concentration to allow for Ki calculation.

[4] = biological target: GPR84-Cys^352Ile Gαi2 fusion protein (Homo sapiens, UniProt Q9NQS5); test: [3H]G9543 radioligand binding (saturation and displacement), GPR84-Cys352Ile Gαi2 fusion protein; design: Cys352Ile Gαi2 (fusion partner, same polypeptide); expressed in transfected cells; host or cells: membranes of Flp-In T-REx 293 cells, doxycycline-induced; conditions: displacement assay
Description: [^3H]G9543 is an analog of compounds 104, 107 and 161 with the same characteristic 2-(substituted-alkoxy)-9-substituted-6,7-dihydro-pyrimido[6,1-a]isoquinolin-4-one chemotype. […] Binding was initiated by the addition of membranes (5 µg of protein per tube). All assays were performed at 25 °C for 1 h before termination by the addition of ice-cold phosphate-buffered saline and vacuum filtration through GF/C glass filters using a 24-well Brandel cell harvester (Alpha Biotech, Glasgow, UK). Each reaction tube was washed three times with ice-cold PBS. The filters were allowed to dry for 2–3 h and then placed in 3 ml of Ultima Gold^TM XR. Radioactivity was quantified by liquid scintillation spectrometry. Specific binding was defined as the difference between binding detected in the presence and absence of 1 µM compound 104.
All data are presented as means ± SEM of at least three independent experiments. Data analysis and curve fitting was carried out using the GraphPad Prism software package version 5.0b (GraphPad, San Diego). For functional assays the concentration-response data were plotted on a log axis, with the untreated vehicle control plotted at 1 log unit lower than the lowest ligand concentration, and fitted to a three parameter sigmoidal curve with the Hill slope constrained to equal 1. In case of inhibition experiments with antagonists an equivalent analysis was followed to fit an inverse sigmoidal curve. To perform the statistical analysis of curve parameters, data from multiple experiments were fitted independently and resulting curve fit values were analysed with indicated tests. For radioligand binding data, saturation binding curves were generated by fitting the specific binding, which was obtained by subtracting non-specific from total binding, to a one site specific binding model that allows calculation of Kd values for the radioligand at wild type and mutant receptors. To determine affinity of unlabelled ligands, data obtained in displacement assays were fit to an inverse three parameter sigmoidal curve constrained by radioligand affinity and concentration to allow for Ki calculation.

Sequence of GPR84-Cys^352Ile Gαi2 fusion protein (Q9NQS5 2-396): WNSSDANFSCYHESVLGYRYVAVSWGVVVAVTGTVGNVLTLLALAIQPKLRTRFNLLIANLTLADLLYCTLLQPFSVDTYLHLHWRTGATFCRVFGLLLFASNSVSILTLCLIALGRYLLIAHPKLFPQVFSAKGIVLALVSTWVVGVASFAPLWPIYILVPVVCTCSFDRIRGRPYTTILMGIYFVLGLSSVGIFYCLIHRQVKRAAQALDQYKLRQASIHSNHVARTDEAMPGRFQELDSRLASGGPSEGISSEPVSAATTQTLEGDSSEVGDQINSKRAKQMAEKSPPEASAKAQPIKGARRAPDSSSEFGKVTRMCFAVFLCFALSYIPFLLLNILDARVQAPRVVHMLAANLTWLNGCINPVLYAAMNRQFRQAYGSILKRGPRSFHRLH
T1 sequence (Q9NQS5 whole entry): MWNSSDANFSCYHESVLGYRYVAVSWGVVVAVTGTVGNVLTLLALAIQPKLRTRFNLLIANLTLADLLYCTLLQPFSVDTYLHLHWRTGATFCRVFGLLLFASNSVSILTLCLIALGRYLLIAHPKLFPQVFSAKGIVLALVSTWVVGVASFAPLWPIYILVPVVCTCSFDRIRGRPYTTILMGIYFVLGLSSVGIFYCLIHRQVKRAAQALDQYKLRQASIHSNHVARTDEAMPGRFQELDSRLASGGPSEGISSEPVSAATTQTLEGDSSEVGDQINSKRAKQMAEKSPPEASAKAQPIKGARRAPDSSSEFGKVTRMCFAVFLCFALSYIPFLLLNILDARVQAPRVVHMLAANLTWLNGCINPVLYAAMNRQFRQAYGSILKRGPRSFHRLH

SMILES: O=c1nc(OC[C@@H]2COCCO2)cc2n1CCc1cc(C#CC3CC3)ccc1-2 [GLPG1205]
efficacy in patients with ulcerative colitis ([1]; 12 weeks of chronic dosing): did not show efficacy
safety and tolerability ([1]; patients with ulcerative colitis): safe and tolerable

SMILES: CCCCCCCCCCN [decylamine]
response of wild type GPR84 [2]: failed to respond

ability to limit [35S]GTPγS binding induced by EC80 concentrations of C10 (50 μM), embelin (3 μM) and DIM (5 μM) [3]: more potent than 161
ability to compete with [3H]G9543 binding [4]: competed fully and effectively
Ki ([4]; read-out: pKi, competition with [3H]G9543 (converted)): 1.86 nM
SMILES: O=c1nc(OC[C@H]2COCCO2)cc2n1CCc1cc(OCc3noc(C4CC4)n3)ccc1-2 [Compound 104, 9-(5-cyclopropyl-[1,2,4]oxadiazol-3-ylmethoxy)-2-((R)-1-[1,4]dioxan-2-ylmethoxy)-6,7-dihydro-pyrimido[6,1-a]isoquinolin-4-one]
